The source of these data is patent US6403604B1, “Nitrogen-based camptothecin derivatives” (California Pacific Medical Center, priority 2001, dated 2002).

One series relates to HCT116 cells. It counts as cell-based. The conditions noted are these: 72 hours drug incubation, colonies counted after 7 days.
The next series relates to C3H/HeJ mice. Briefly: in vivo. Here is the method: (§1) This example provides directions for performing in vivo toxicity tests of the compounds of the invention on C3H/HeJ mice.
(§2) Acute toxicities of the compounds of this invention are evaluated on C3H/HeJ mice (body weight 18-22 g). The MTD40 (maximum tolerated dose at day 40) values are determined by the standard procedure described by Gad and Chengelis (see, for example, “Acute Toxicology Testing,” 2nd Ed., Shayne O. Gad and Christopher P. Chengelis, pp. 186-195 (Academic Press).) In the consecutive type studies, 2 mice are dosed at low and moderate doses of 40 and 100 mg/kg. If no severe and irreversible toxicity (euthanasia is required) occurs at these doses, a new pair of animals is initiated at 180 mg/kg, which is 1.8 times higher than 100 mg/kg. Sequential dosages (about 3 doses on 3 pairs of animals, i.e. 2 mice for each drug dose) are increased by a factor of 1.8 until severe and irreversible toxicity (euthanasia is required) occurred. Then another pair of animals is initiated at the highest nonlethal dosage, and successive dosages were increased by a factor of 1.15. The result of this exercise is two dosages, one apparently nonlethal and the other lethal if severe and irreversible toxicity occurs and euthanasia is required, separated by a factor of 1.15. Six mice are dosed at each dosage. If no severe and irreversible toxicity occurs at the lower dosage and at least one with severe and irreversible toxicity occurs at the higher dose, then the lower dose is considered to be the MTD. The compounds of this invention are administered to C3H/HeJ mice by intraperitoneal injection. Drug toxicity is evaluated on mice checked daily for 45 days. The toxicity parameters reported will be the MTD40.

Another series can be described thus: in vivo. The conditions noted are these: C3H/HeJ, mouse, in vivo, ip. The procedure: as §1, §2
For series [1] the following is noted: cited from earlier work.
Series [2] deals with mouse leukemia L1210 system. The settings on record: cited from earlier work.
Setting [3] is: maximum tolerated dose, C3H/HeJ mice, intraperitoneal injection.

Structures are written as SMILES. Where two headings read alike, the source gives them in different places.

Experimental for HCT116 cells: This example provides directions for growing cells and testing compounds of the invention for their effect on the growth of the cells.
Cell Colony Formation Assay
Four hundred cells (HCT 116, PC-3) or five hundred cells (VM46) were plated in 60 mm Petri dishes containing 2.7 ml of medium (modified McCoy's 5a medium) containing 10% fetal bovine serum and 100 units/ml penicillin and 100 mg/ml streptomycin. The cells were incubated in a CO2 incubator at 37° C. for 5 hours for attachment to the bottom of Petri dishes. Drugs were made fresh in medium at ten times the final concentration, and then 0.3 ml of this stock solution was added to the 2.7 ml of medium in the dish. The cells were then incubated with drugs for 72 hours at 37° C. At the end of the incubation the drug-containing media were decanted, the dishes were rinsed with 4 ml of Hank's Balance Salt Solution (HBSS), 5 ml of fresh medium was added, and the dishes were returned to the incubator for colony formation.
Values of ID50 (the drug concentration producing 50% inhibition of colony 5 formation) may be determined for each tested compound.

Take `CC[C@@]1(OC(=O)CCN2C(=O)c3ccccc3C2=O)C(=O)OCc2c1cc1n(c2=O)Cc2cc3ccccc3nc2-1` [000503 (1), Camptothecin-20S-Ester of 3-Phthalimidopropionic Acid]: the results for the “Survival (%) of HCT116” value in the series with HCT116 cells (10 nM) and with HCT116 cells (100 nM) were 95.24% and 0%, respectively. Further, the MTD in the series on C3H/HeJ mice (setting [3]) is given as 150 mg/kg.

Turning to `CCc1c2c(nc3ccc(OC(=O)N4CCC(N5CCCCC5)CC4)cc13)-c1cc3c(c(=O)n1C2)COC(=O)[C@]3(O)CC` [Irinotecan, 7-ethyl-10[4-(1-piperidino)-1-piperidino]carbonyloxy CPT, reference compound], the “Survival (%) of HCT116” value in the series on HCT116 cells (100 nM) came out at 90.52%.

`CC[C@@]1(O)C(=O)OCc2c1cc1n(c2=O)Cc2cc3ccccc3nc2-1` [Camptothecin, (S)-4-ethyl-4-hydroxy-1H-pyrano-[3′,4′:6,7]indolizinol[1,2-b]quinoline-3,14(4H, 12H)-dione]: the “Survival (%) of HCT116” value is reported as 73.72% in the series on HCT116 cells (10 nM) and 0% in the series on HCT116 cells (100 nM). The molecule also had an MTD at 45 days in “in vivo” of 12 mg/kg. In series [1], the solubility in water entry is on record as “essentially insoluble”. In addition, the antitumor activity result in series [2] was “antitumor activity”.

Take `CC[C@@]1(OC(=O)CCN2CCN(c3ccccc3Cl)CC2)C(=O)OCc2c1cc1n(c2=O)Cc2cc3ccccc3nc2-1` [010117 (11), Camptothecin-20S-ester of 3-[4-(2-chlorophenyl)-1-piperazinyl]propionic Acid]: the figures for the “Survival (%) of HCT116” value with HCT116 cells (1 nM), with HCT116 cells (10 nM) and in the series on HCT116 cells (100 nM) were 100%, 0% and 0%, respectively.

`CC[C@@]1(OC(=O)CCN2C(=O)c3cccc4c([N+](=O)[O-])ccc(c34)C2=O)C(=O)OCc2c1cc1n(c2=O)Cc2cc3ccccc3nc2-1` [001128 (4), Camptothecin-20S-Ester of 3-(4-Nitro-1,8-Naphthalimide)propionic Acid]: the MTD in the series with C3H/HeJ mice (mouse, in vivo, ip) worked out at 150 mg/kg.

As to `CC[C@@]1(OC(=O)CCN2CCN(Cc3ccccc3)CC2)C(=O)OCc2c1cc1n(c2=O)Cc2cc3ccccc3nc2-1` [001204 (7), Camptothecin-20s-ester of 3-[(4-benzyl)-1-piperazinyl]propionic Acid], the entries for the “Survival (%) of HCT116” value in the series on HCT116 cells (1 nM), in the series on HCT116 cells (10 nM) and in the series with HCT116 cells (100 nM) were 64.04%, 0% and 0%, respectively.

With `CCC1(OC(=O)CCN2C(=O)C=CC2=O)C(=O)OCc2c1cc1n(c2=O)Cc2cc3ccccc3nc2-1` (stereo not drawn) [010104 (2), Camptothecin-20S-Ester of 3-Maleimidopropionic Acid], the “Survival (%) of HCT116” value in the series with HCT116 cells (10 nM) amounted to 95.54%; with HCT116 cells (100 nM), 0%.

As for `CC[C@@]1(OC(=O)CCN2CCN(c3cccc(OC)c3)CC2)C(=O)OCc2c1cc1n(c2=O)Cc2cc3ccccc3nc2-1` [001129 (8), Camptothecin-20S-ester of 3-[4-(3-methoxyphenyl)-1-piperazinyl]propionic Acid], the “Survival (%) of HCT116” value in the series on HCT116 cells (1 nM) came to 73.26%; in the series on HCT116 cells (10 nM) it was 0%; with HCT116 cells (100 nM), 0%. The molecule further registered an MTD in the series on C3H/HeJ mice (setting [3]) of 150 mg/kg.

`CC[C@@]1(OC(=O)CCN2CCN(c3ccc(F)cc3)CC2)C(=O)OCc2c1cc1n(c2=O)Cc2cc3ccccc3nc2-1` [010124 (12), Camptothecin-20S-ester of 3-[4-(4-fluorophenyl)-1-piperazinyl]propionic Acid]: the entries for the “Survival (%) of HCT116” value in the series with HCT116 cells (1 nM), with HCT116 cells (10 nM) and with HCT116 cells (100 nM) were 100%, 0% and 0%, respectively.

Turning to `CC[C@@]1(OC(=O)CCN2CCN(c3ccc([N+](=O)[O-])cc3)CC2)C(=O)OCc2c1cc1n(c2=O)Cc2cc3ccccc3nc2-1` [010105 (9), Camptothecin-20S-ester of 3-[4-(4-nitrophenyl)-1-piperazinyl]propionic Acid], the entries for the “Survival (%) of HCT116” value with HCT116 cells (1 nM), with HCT116 cells (10 nM) and in the series with HCT116 cells (100 nM) were 94.14%, 0% and 0%, respectively.

As to `CC[C@@]1(OC(=O)CCN2CCN(c3cccc(C(F)(F)F)c3)CC2)C(=O)OCc2c1cc1n(c2=O)Cc2cc3ccccc3nc2-1` [001101 (6), Camptothecin-20S-ester of 3-[4-(3-trifluoromethylphenyl)-1-piperazinyl]-propionic acid], the “Survival (%) of HCT116” value was determined as 100% in the series on HCT116 cells (1 nM), 0% in the series on HCT116 cells (10 nM) and 0% in the series with HCT116 cells (100 nM). The MTD in the series with C3H/HeJ mice (setting [3]) was found to be 150 mg/kg.
